The values below are quoted from earlier work in US8742076B2, “Nemorubicin metabolite and analog reagents, antibody-drug conjugates and methods” (Genentech, Inc., priority 2008, dated 2014).

Data set [1] has as its system tumor models.
The conditions of data set [2]: comparison with nemorubicin and doxorubicin.

Regarding `COc1cccc2c1C(=O)c1c(O)c3c(c(O)c1C2=O)C[C@@](O)(C(=O)CO)C[C@@H]3O[C@H]1C[C@H]2[C@H](O[C@@H]3[C@@H](OC)OCCN32)[C@H](C)O1` [PNU (159682), 3′-deamino-3″,4′-anhydro-[2″(S)-methoxy-3″(R)-oxy-4″-morpholinyl]doxorubicin], the “efficacy in in vivo tumor models” value in data set [1] is given as “effective”. In addition, in data set [2], the “cytotoxicity in vitro compared with nemorubicin and doxorubicin” value is “remarkably more cytotoxic than nemorubicin and doxorubicin”.
